What was measured:
[1] = molecular target: T1, Peroxisome proliferator-activated receptor alpha (Homo sapiens, UniProt Q07869); type: functional
T1 sequence (Q07869 whole entry): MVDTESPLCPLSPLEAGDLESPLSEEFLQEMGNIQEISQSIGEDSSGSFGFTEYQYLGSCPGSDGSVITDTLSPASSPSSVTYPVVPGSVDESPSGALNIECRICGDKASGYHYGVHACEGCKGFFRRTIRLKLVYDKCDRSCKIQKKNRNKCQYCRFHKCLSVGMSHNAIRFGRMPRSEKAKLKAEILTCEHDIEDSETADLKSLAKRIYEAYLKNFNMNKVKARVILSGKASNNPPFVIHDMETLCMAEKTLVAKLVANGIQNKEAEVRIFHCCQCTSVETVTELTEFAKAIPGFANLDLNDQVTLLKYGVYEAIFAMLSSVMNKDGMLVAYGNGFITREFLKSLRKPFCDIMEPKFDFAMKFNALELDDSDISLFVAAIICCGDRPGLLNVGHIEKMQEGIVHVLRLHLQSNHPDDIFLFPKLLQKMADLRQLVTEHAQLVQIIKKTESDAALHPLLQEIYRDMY

[2] = molecular target: 5-hydroxytryptamine receptor 2A (Homo sapiens, UniProt P28223)
[3] = molecular target: T2, 5-hydroxytryptamine receptor 1A (Homo sapiens, UniProt P08908)
T2 sequence (P08908 whole entry): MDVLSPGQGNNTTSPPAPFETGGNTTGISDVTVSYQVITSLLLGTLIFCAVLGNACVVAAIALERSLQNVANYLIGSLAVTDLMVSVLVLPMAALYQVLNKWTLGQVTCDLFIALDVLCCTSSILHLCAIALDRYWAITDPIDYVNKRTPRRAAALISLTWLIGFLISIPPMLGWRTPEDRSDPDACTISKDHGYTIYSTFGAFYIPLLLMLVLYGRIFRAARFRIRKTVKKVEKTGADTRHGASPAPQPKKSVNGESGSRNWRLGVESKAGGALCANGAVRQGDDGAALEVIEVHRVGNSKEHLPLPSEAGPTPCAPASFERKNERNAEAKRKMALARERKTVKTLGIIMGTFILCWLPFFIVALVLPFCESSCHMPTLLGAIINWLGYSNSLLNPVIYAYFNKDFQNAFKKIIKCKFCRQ

[4] = molecular target: T3, Muscarinic acetylcholine receptor M2 (Homo sapiens, UniProt P08172)
T3 sequence (P08172 whole entry): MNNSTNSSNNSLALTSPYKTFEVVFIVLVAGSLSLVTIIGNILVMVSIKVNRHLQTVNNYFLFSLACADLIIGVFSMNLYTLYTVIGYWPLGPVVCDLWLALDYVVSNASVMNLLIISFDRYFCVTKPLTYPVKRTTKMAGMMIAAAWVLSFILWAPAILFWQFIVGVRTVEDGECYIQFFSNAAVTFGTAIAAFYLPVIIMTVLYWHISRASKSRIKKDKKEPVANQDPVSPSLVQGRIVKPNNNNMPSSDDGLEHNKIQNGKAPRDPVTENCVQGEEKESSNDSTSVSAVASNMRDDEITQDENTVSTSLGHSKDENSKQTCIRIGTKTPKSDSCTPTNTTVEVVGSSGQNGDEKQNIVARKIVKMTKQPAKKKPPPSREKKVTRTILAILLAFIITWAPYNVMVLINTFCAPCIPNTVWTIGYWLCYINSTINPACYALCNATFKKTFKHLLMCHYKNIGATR

Bile acid receptor [5] = molecular target: T4, Bile acid receptor (Homo sapiens, UniProt Q96RI1); type: functional
T4 sequence (Q96RI1 whole entry): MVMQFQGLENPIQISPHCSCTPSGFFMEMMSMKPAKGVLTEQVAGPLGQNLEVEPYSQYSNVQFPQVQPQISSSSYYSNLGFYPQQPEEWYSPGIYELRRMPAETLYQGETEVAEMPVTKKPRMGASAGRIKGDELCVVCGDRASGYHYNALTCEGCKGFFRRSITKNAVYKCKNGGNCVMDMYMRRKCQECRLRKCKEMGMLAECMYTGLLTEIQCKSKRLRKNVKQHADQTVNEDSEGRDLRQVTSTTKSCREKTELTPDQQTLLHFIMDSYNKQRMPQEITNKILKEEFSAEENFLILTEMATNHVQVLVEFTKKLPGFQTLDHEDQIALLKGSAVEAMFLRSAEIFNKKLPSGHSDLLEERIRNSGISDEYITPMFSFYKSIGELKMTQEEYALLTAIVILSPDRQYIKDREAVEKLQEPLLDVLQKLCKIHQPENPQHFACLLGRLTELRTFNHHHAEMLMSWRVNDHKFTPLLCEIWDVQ

[6] = molecular target: T5, Oxysterols receptor LXR-beta (Homo sapiens, UniProt P55055); type: functional
T5 sequence (P55055 whole entry): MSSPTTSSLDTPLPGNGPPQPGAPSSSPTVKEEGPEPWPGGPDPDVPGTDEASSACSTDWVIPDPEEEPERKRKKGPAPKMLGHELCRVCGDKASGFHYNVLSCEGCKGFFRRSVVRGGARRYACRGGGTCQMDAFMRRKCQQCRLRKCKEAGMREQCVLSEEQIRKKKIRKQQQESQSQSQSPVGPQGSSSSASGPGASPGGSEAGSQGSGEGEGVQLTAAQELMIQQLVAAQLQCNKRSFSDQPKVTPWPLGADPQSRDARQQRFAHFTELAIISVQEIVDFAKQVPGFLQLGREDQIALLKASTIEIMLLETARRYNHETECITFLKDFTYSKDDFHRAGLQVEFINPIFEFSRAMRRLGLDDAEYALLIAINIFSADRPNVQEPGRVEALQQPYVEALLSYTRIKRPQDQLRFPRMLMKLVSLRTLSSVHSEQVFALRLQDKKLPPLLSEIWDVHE

[7] = molecular target: T5, Oxysterols receptor LXR-beta; type: functional; remark: listed apart in the source
[8] = molecular target: T6, Retinoic acid receptor gamma (Homo sapiens, UniProt P13631); type: functional, cell-based
T6 sequence (P13631 whole entry): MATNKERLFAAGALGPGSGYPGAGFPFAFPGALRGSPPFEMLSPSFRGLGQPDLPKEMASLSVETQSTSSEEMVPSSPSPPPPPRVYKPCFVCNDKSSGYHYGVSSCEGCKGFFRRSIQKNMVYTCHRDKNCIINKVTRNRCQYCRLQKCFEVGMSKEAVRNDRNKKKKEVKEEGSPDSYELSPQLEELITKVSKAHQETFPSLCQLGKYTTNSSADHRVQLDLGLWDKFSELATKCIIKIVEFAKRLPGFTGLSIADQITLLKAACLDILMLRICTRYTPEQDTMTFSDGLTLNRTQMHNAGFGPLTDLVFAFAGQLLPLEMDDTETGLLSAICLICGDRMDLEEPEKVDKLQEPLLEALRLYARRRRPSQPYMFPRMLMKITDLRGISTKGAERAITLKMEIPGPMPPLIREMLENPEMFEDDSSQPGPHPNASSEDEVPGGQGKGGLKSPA

Bile acid receptor [9] = molecular target: T4, Bile acid receptor; type: functional; remark: listed apart in the source
Also: assay procedure not described here.

Sequence of 5-hydroxytryptamine receptor 2A (P28223 whole entry): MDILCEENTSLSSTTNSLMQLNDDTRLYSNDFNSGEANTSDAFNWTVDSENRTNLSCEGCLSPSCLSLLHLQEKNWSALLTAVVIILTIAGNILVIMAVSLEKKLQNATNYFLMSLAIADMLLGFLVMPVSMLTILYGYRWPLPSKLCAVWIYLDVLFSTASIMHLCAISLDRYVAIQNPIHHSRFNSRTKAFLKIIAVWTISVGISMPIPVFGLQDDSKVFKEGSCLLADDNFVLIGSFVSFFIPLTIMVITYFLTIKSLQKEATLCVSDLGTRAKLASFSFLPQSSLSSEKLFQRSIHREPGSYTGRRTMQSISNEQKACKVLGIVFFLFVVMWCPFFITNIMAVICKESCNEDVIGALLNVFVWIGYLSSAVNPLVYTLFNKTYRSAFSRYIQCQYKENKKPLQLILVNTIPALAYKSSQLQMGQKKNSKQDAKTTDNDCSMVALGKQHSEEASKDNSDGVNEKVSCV

SMILES	AC50 [6] [µM]	AC50 [8] [µM]	AC50 [1] [µM]	other results
CC(C)Cc1ccc(C(C)C(=O)O)cc1 (configuration not stated) [IBUPROFEN]			> 30	
CN(C)CCc1c[nH]c2ccc(Cn3cncn3)cc12 [RIZATRIPTAN]				AC50 [2]: > 10 µM
COc1ccccc1Oc1c(NS(=O)(=O)c2ccc(C(C)(C)C)cc2)nc(-c2ncccn2)nc1OCCO [BOSENTAN]			> 30	
COc1cc2nccc(Oc3ccc(NC(=O)C4(C(=O)Nc5ccc(F)cc5)CC4)cc3)c2cc1OC [CABOZANTINIB]				AC50 [3]: > 30 µM; AC50 [4]: > 30 µM

More lines, main results first:

AC50 [6] [µM]	AC50 [8] [µM]	SMILES	AC50 [1] [µM]	other results
> 30	> 30	CC(C(=O)O)c1ccc2c(c1)[nH]c1ccc(Cl)cc12 (configuration not stated) [CARPROFEN]		AC50 (Bile acid receptor [5]): > 30 µM; AC50 [7]: > 30 µM; AC50 (Bile acid receptor [9]): > 10 µM
> 30	> 10	CCN(CC)CCNC(=O)c1c(C)[nH]c(/C=C2\C(=O)Nc3ccc(F)cc32)c1C [SUNITINIB]		

Reference: ChEMBL document CHEMBL5291721, “A preclinical secondary pharmacology resource illuminates target-adverse drug reaction associations of marketed drugs” (Nat Commun, 2023)
